Test results as given in patent US10519154B2, “7-substituted 1-pyridyl-naphthyridine-3-carboxylic acid amides and use thereof” (Bayer Pharma Aktiengesellschaft, priority 2016, dated 2019).

Target: T1, human M2 receptor (Homo sapiens, UniProt P08172)
T1 sequence (P08172 1-466): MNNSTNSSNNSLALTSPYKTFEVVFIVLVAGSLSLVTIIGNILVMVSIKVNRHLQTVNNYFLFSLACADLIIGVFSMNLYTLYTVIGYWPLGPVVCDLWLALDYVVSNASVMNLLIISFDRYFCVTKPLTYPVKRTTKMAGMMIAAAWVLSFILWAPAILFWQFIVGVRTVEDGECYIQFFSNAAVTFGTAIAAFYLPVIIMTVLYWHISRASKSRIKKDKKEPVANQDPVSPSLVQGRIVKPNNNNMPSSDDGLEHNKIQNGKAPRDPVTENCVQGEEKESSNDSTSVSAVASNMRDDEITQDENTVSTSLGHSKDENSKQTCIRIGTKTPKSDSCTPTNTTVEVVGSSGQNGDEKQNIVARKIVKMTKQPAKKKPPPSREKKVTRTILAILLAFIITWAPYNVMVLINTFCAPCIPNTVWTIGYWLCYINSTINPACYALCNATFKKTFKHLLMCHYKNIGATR
Assay: Functional M2-GIRK1/4 activation test: allosteric potency (EC50) and efficiency
Settings: for EC50: Receptor activity EC50, CHO-DUKX-M2-GIRK cells, acetylcholine at EC20, in some cases mean of two or more determinations; for Emax: read-out: Efficiency, boosting of the acetylcholine effect at EC20 acetylcholine concentration; for Emax / Efficiency: CHO-DUKX-M2-GIRK cells; for Efficiency: boosting of the acetylcholine effect at EC20 acetylcholine concentration

SMILES	EC50	Emax	Efficiency
O=C(N[C@H](C1CC1)C(F)(F)F)c1cn(-c2ncc(F)cc2Cl)c2nc(N3C[C@@H](O)CC3=O)ccc2c1=O [Example 21, 1-(3-Chloro-5-fluoropyridin-2-yl)-N-[(1R)-1-cyclopropyl-2,2,2-trifluoroethyl]-7-[(4S)-4-hydroxy-2-oxopyrrolidin-1-yl]-4-oxo-1,4-dihydro-1,8-naphthyridine-3-carboxamide]	0.195 µM	98.5%	–
CC1C(O)C2(CC2)C(=O)N1c1ccc2c(=O)c(C(=O)N[C@@H](C)C(F)(F)F)cn(-c3ncc(F)cc3F)c2n1 (stereo partly drawn) [Example 116, 1-(3,5-Difluoropyridin-2-yl)-7-[7-hydroxy-6-methyl-4-oxo-5-azaspiro[2.4]hept-5-yl]-4-oxo-N-[(2S)-1,1,1-trifluoropropan-2-yl]-1,4-dihydro-1,8-naphthyridine-3-carboxamide]	0.335 µM	96%	–
CC(NC(=O)c1cn(-c2ncc(F)cc2F)c2nc(N3CCCC[C@@H]3CO)ccc2c1=O)C(F)(F)C(F)(F)F (single isomer, unassigned) [Example 176]	0.028 µM	100%	–
CC(C)C(NC(=O)c1cn(-c2ncc(F)cc2F)c2nc(N3C[C@@H](O)CC3=O)ccc2c1=O)C(F)(F)F (stereo partly drawn) [Example 154, 1-(3,5-Difluoropyridin-2-yl)-7-[(4S)-4-hydroxy-2-oxopyrrolidin-1-yl]-4-oxo-N-[1,1,1-trifluoro-3-methylbutan-2-yl]-1,4-dihydro-1,8-naphthyridine-3-carboxamide]	0.089 µM	100%	–
O=C(NC(c1ccc(F)cc1)C(F)(F)F)c1cn(-c2ncc(F)cc2F)c2nc(N3C[C@@H](O)CC3=O)ccc2c1=O (single isomer, unassigned) [Example 13]	0.13 µM	–	99.50%
O=C(N[C@H](C1CC1)C(F)(F)F)c1cn(-c2ncccc2F)c2nc(N3CC4CC4(O)C3)ccc2c1=O (mixture of isomers) [Example 135, N-[(1R)-1-Cyclopropyl-2,2,2-trifluoroethyl]-1-(3-fluoropyridin-2-yl)-7-[(1S)-1-hydroxy-3-azabicyclo[3.1.0]hex-3-yl]-4-oxo-1,4-dihydro-1,8-naphthyridine-3-carboxamide]	0.097 µM	100%	–
O=C(NC(c1ccccc1Cl)C(F)(F)F)c1cn(-c2ncc(F)cc2F)c2nc(N3CCNC3=O)ccc2c1=O (single isomer, unassigned) [Example 149, N-[1-(2-Chlorophenyl)-2,2,2-trifluoroethyl]-1-(3,5-difluoropyridin-2-yl)-4-oxo-7-(2-oxoimidazolidin-1-yl)-1,4-dihydro-1,8-naphthyridine-3-carboxamide]	0.032 µM	–	100.00%
CC[C@@H](NC(=O)c1cn(-c2ncc(F)cc2F)c2nc(N3CCOCC3)ccc2c1=O)C(F)(F)F [Example 71, 1-(3,5-Difluoropyridin-2-yl)-7-(morpholin-4-yl)-4-oxo-N-[(2R)-1,1,1-trifluorobutan-2-yl]-1,4-dihydro-1,8-naphthyridine-3-carbonxamide]	0.36 µM	97.5%	–
O=C(NC(C1CC1)C(F)(F)F)c1cn(-c2ncc(F)cc2F)c2nc(N3CC[C@@H](O)C3=O)ccc2c1=O (stereo partly drawn) [Example 26, N-[1-Cyclopropyl-2,2,2-trifluoroethyl]-1-(3,5-difluoropyridin-2-yl)-7-[(3R)-3-hydroxy-2-oxopyrrolidin-1-yl]-4-oxo-1,4-dihydro-1,8-naphthyridine-3-carboxamide]	0.2 µM	94.5%	–
CC(NC(=O)c1cn(-c2ncc(F)cc2F)c2nc(N3C[C@@H](O)[C@H](O)C3)ccc2c1=O)C(F)(F)C(F)(F)F (single isomer, unassigned) [Example 89]	0.275 µM	98%	–

The remaining molecules from weak to strong by EC50, led by results:

EC50	Emax	Efficiency	SMILES
0.42 µM	92%	–	O=C(N[C@@H](C1CC1)C(F)(F)F)c1cn(-c2ncc(F)cc2F)c2nc(N3CCN(CCO)C3=O)ccc2c1=O [Example 167, N-[(1S)-1-Cyclopropyl-2,2,2-trifluoroethyl]-1-(3,5-difluoropyridin-2-yl)-7-[3-(2-hydroxyethyl)-2-oxoimidazolidin-1-yl]-4-oxo-1,4-dihydro-1,8-naphthyridine-3-carboxamide]
0.36 µM	100%	–	O=C(NC1(C(F)(F)F)CCC1)c1cn(-c2ncc(F)cc2F)c2nc(N3C[C@@H](O)[C@H](O)C3)ccc2c1=O [Example 155, 1-(3,5-Difluoropyridin-2-yl)-7-[(3R,4R)-3,4-dihydroxypyrrolidin-1-yl]-4-oxo-N-[1-(trifluoromethyl)cyclobutyl]-1,4-dihydro-1,8-naphthyridine-3-carboxamide]
0.29 µM	99%	–	O=C(NC1(C(F)(F)F)CCC1)c1cn(-c2ncc(F)cc2F)c2nc(N3C[C@@H](O)CC3=O)ccc2c1=O [Example 151, 1-(3,5-Difluoropyridin-2-yl)-7-[(4S)-4-hydroxy-2-oxopyrrolidin-1-yl]-4-oxo-N-[1-(trifluoromethyl)cyclobutyl]-1,4-dihydro-1,8-naphthyridine-3-carboxamide]
0.15 µM	92%	–	C[C@@H]1CN(c2ccc3c(=O)c(C(=O)NC(C)(C)C(F)F)cn(-c4ncc(F)cc4F)c3n2)C(=O)N1 [Example 144, N-(1,1-difluoro-2-methylpropan-2-yl)-1-(3,5-difluoropyridin-2-yl)-7-[(4R)-4-methyl-2-oxoimidazolidin-1-yl]-4-oxo-1,4-dihydro-1,8-naphthyridine-3-carboxamide]
0.073 µM	97%	–	CC(C)(C)[C@H](NC(=O)c1cn(-c2ncc(F)cc2F)c2nc(N3CCCN(CCO)C3=O)ccc2c1=O)C(F)(F)F [Example 125, 1-(3,5-Difluoropyridin-2-yl)-7-[3-(2-hydroxyethyl)-2-oxotetrahydropyrimidin-1(2H)-yl]-4-oxo-N-[(2S)-1,1,1-trifluoro-3,3-dimethylbutan-2-yl]-1,4-dihydro-1,8-naphthyridine-3-carboxamide]
0.059 µM	99.5%	–	CC(NC(=O)c1cn(-c2ncc(F)cc2F)c2nc(N3C[C@@H](O)[C@H](O)C3)ccc2c1=O)C(F)(F)C(F)(F)F (mixture of isomers) [Example 88, 1-(3,5-Difluoropyridin-2-yl)-7-[(3R,4R)-3,4-dihydroxypyrrolidin-1-yl]-4-oxo-N-[3,3,4,4,4-pentafluorobutan-2-yl]-1,4-dihydro-1,8-naphthyridine-3-carboxamide]
0.053 µM	93%	–	CC[C@H](NC(=O)c1cn(-c2ncc(F)cc2F)c2nc(N(C)C)ccc2c1=O)C(F)(F)F [Example 130, 1-(3,5-Difluoropyridin-2-yl)-7-(dimethylamino)-4-oxo-N-[(2S)-1,1,1-trifluorobutan-2-yl]-1,4-dihydro-1,8-naphthyridine-3-carboxamide]
0.05 µM	96%	–	CC(C)(C)[C@@H](NC(=O)c1cn(-c2ncc(F)cc2F)c2nc(N3CCCN(CCO)C3=O)ccc2c1=O)C(F)(F)F [Example 127, 1-(3,5-Difluoropyridin-2-yl)-7-[3-(2-hydroxyethyl)-2-oxotetrahydropyrimidin-1(2H)-yl]-4-oxo-N-[(2R)-1,1,1-trifluoro-3,3-dimethylbutan-2-yl]-1,4-dihydro-1,8-naphthyridine-3-carboxamide]
